Data from patent US6960614B2, “Oxygenated esters of 4-lodo phenylamino benzhydroxamic acids” (Warner-Lambert Company, priority 2000, dated 2005).

Test system: MEK
Assay: Cellular Assay for Measuring MEK Inhibition (inhibition of ERK phosphorylation in C26 cells, Western blot)
Type: cell-based, murine
Settings: for % Inhibition @ 0.1 μM / % Inhibition @ 1 μM / % Inhibition @ 10 μM: ERK phosphorylation in C26 cells; for IC50: inhibition of ERK phosphorylation in murine colon 26 (C26) carcinoma cells, determined graphically from dose response curve
Protocol: The evaluation of the compounds as MEK inhibitors was performed in an assay that measures their ability to inhibit phosphorylation of MAP kinase […]) in murine colon 26 (C26) carcinoma cells. Since ERK1 and ERK2 represent the only known substrates for MEK, measurement of inhibition of ERK phosphorylation in cells provides direct readout of cellular MEK inhibition by the compounds of the invention. Briefly, the assay involves treating exponentially growing C26 cells with varying concentrations of the test compound (or vehicle control) for […] at 37° C. Cells are then rinsed free of compound/vehicle and lysed in a solution containing 70 mM NaCl, 50 mM glycerol phosphate, 10 mM HEPES, pH 7.4, 1% Triton X-100, 1 mM Na3VO4, 100 μM PMSF, 10 μM leupeptin and 10 μM pepstatin. Supernatants are then subjected to gel electrophoresis and Western blotting using a primary antibody recognizing dually phosphorylated ERK1 and ERK2. To evaluate total MAPK levels, blots were subsequently ‘stripped’ and re-probed with a 1:1 mixture of polyclonal antibodies recognizing unphosphorylated ERK1 and ERK2.

IC50 [nM]	Compound	% Inhibition @ 0.1 μM [%]	% Inhibition @ 1 μM [%]	% Inhibition @ 10 μM [%]
	COCCONC(=O)c1cc(Cl)c(F)c(F)c1Nc1ccc(I)cc1C [Example 141, 5-Chloro-3,4-difluoro-2-(4-iodo-2-methyl-phenylamino)-N-(2-methoxy-ethoxy)-benzamide]	38	92.7	
	COCCONC(=O)c1cc(Cl)c(F)c(F)c1Nc1ccc(I)cc1F [Example 142, 5-Chloro-3,4-difluoro-2-(2-fluoro-4-iodo-phenylamino)-N-(2-methoxy-ethoxy)-benzamide]	31	91.4	
600	O=C(NOCC(O)CN1CCOCC1)c1ccc(F)c(F)c1Nc1ccc(I)cc1Cl (stereo not drawn) [Example 143, 2-(2-Chloro-4-iodo-phenylamino)-3,4-difluoro-N-(2-hydroxy-3-morpholin-4-yl-propoxy)-benzamide]			
100	O=C(NOCC(O)CN1CCOCC1)c1cc(F)c(F)c(F)c1Nc1ccc(I)cc1Cl (stereo not drawn) [Example 145, 2-(2-Chloro-4-iodo-phenylamino)-3,4,5-trifluoro-N-(2-hydroxy-3-morpholin-4-yl-propoxy)-benzamide]			
	Cc1cc(I)ccc1Nc1c(C(=O)NOCC(O)CN2CCOCC2)cc(F)c(F)c1F (stereo not drawn) [Example 146, 3,4,5-Trifluoro-N-(2-hydroxy-3-morpholin-4-yl-propoxy)-2-(4-iodo-2-methyl-phenylamino)-benzamide]	0	40.5	
100	Cc1cc(I)ccc1Nc1c(C(=O)NOCC(O)CN2CCOCC2)cc(Br)c(F)c1F (stereo not drawn) [Example 147, 5-Bromo-3,4-difluoro-N-(2-hydroxy-3-morpholin-4-yl-propoxy)-2-(4-iodo-2-methyl-phenylamino)-benzamide]			
230	Cc1cc(I)ccc1Nc1c(C(=O)NOCC(O)CN2CCOCC2)ccc(F)c1F (stereo not drawn) [Example 148, 3,4-Difluoro-N-(2-hydroxy-3-morpholin-4-yl-propoxy)-2-(4-iodo-2-methyl-phenylamino)-benzamide]			
170	O=C(NOCC(O)CN1CCOCC1)c1cc(Cl)c(F)c(F)c1Nc1ccc(I)cc1Cl (stereo not drawn) [Example 149, 5-Chloro-2-(2-chloro-4-iodo-phenylamino)-3,4-difluoro-N-(2-hydroxy-3-morpholin-4-yl-propoxy)-benzamide]			
	Cc1cc(I)ccc1Nc1c(C(=O)NOCC(O)CN2CCOCC2)cc(Cl)c(F)c1F (stereo not drawn) [Example 150, 5-Chloro-3,4-difluoro-N-(2-hydroxy-3-morpholin-4-yl-propoxy)-2-(4-iodo-2-methyl-phenylamino)-benzamide]	49	99.9	
41	O=C(NOCC(O)CN1CCOCC1)c1ccc(F)c(F)c1Nc1ccc(I)cc1F (stereo not drawn) [Example 151, 3,4-Difluoro-2-(2-fluoro-4-iodo-phenylamino)-N-(2-hydroxy-3-morpholin-4-yl-propoxy)-benzamide]			
	O=C(NOCC(O)CN1CCOCC1)c1cc(Cl)c(F)c(F)c1Nc1ccc(I)cc1F (stereo not drawn) [Example 152, 5-Chloro-3,4-difluoro-2-(2-fluoro-4-iodo-phenylamino)-N-(2-hydroxy-3-morpholin-4-yl-propoxy)-benzamide]	59.2	90.3	
	O=C(NOCC(O)CN1CCOCC1)c1cc(F)c(F)cc1Nc1ccc(I)cc1F (stereo not drawn) [Example 153, 4,5-Difluoro-2-(2-fluoro-4-iodo-phenylamino)-N-(2-hydroxy-3-morpholin-4-yl-propoxy)-benzamide]	13.9	89.5	
	O=C(NOCC(O)CN1CCOCC1)c1cc(Cl)c(F)c(F)c1Nc1ccc(F)cc1F (stereo not drawn) [Example 154, 5-Chloro-2-(2,4-difluoro-phenylamino)-3,4-difluoro-N-(2-hydroxy-3-morpholin-4-yl-propoxy)-benzamide]		8.9	51
	O=C(NOCC(O)CN1CCOCC1)c1ccc(F)c(F)c1Nc1ccc(Cl)cc1F (stereo not drawn) [Example 155, 2-(4-Chloro-2-fluoro-phenylamino)-3,4-difluoro-N-(2-hydroxy-3-morpholin-4-yl-propoxy)-benzamide]	0	30.9	
11	CC(O)CONC(=O)c1ccc(F)c(F)c1Nc1ccc(I)cc1Cl (stereo not drawn) [Example 156, 2-(2-Chloro-4-iodo-phenylamino)-3,4-difluoro-N-(2-hydroxy-propoxy)-benzamide]			
	Cc1cc(I)ccc1Nc1c(C(=O)NOCC(C)O)cc(F)c(F)c1F (stereo not drawn) [Example 157, 3,4,5-Trifluoro-N-(2-hydroxy-propoxy)-2-(4-iodo-2-methyl-phenylamino)-benzamide]	50.7	91.5	
	Cc1cc(I)ccc1Nc1c(C(=O)NOCC(C)O)cc(Br)c(F)c1F (stereo not drawn) [Example 159, 5-Bromo-3,4-difluoro-N-(2-hydroxy-propoxy)-2-(4-iodo-2-methyl-phenylamino)-benzamide]	88.4	100	
	CC(O)CONC(=O)c1cc(F)c(F)c(F)c1Nc1ccc(I)cc1Cl (stereo not drawn) [Example 160, 2-(2-Chloro-4-iodo-phenylamino)-3,4,5-trifluoro-N-(2-hydroxy-propoxy)-benzamide]	71.9	96.8	
15	CC(O)CONC(=O)c1cc(Cl)c(F)c(F)c1Nc1ccc(I)cc1Cl (stereo not drawn) [Example 161, 5-Chloro-2-(2-chloro-4-iodo-phenylamino)-3,4-difluoro-N-(2-hydroxy-propoxy)-benzamide]			
7.85	Cc1cc(I)ccc1Nc1c(C(=O)NOCC(C)O)ccc(F)c1F (stereo not drawn) [Example 162, 3,4-Difluoro-N-(2-hydroxy-propoxy)-2-(4-iodo-2-methyl-phenylamino)-benzamide]			
	Cc1cc(I)ccc1Nc1c(C(=O)NOCC(C)O)cc(Cl)c(F)c1F (stereo not drawn) [Example 163, 5-Chloro-3,4-difluoro-N-(2-hydroxy-propoxy)-2-(4-iodo-2-methyl-phenylamino)-benzamide]	88.9	95.1	
3	CC(O)CONC(=O)c1ccc(F)c(F)c1Nc1ccc(I)cc1F (stereo not drawn) [Example 164, 3,4-Difluoro-2-(2-fluoro-4-iodo-phenylamino)-N-(2-hydroxy-propoxy)-benzamide]			
4	CC(O)CONC(=O)c1cc(Cl)c(F)c(F)c1Nc1ccc(I)cc1F (stereo not drawn) [Example 165, 5-Chloro-3,4-difluoro-2-(2-fluoro-4-iodo-phenylamino)-N-(2-hydroxy-propoxy)-benzamide]			
	CC(O)CONC(=O)c1cc(Cl)c(F)c(F)c1Nc1ccc(F)cc1F (stereo not drawn) [Example 166, 5-Chloro-2-(2,4-difluoro-phenylamino)-3,4-difluoro-N-(2-hydroxy-propoxy)-benzamide]	0	31.9	88.7
	CC(O)CONC(=O)c1ccc(F)c(F)c1Nc1ccc(F)cc1F (stereo not drawn) [Example 167, 2-(2,4-Difluoro-phenylamino)-3,4-difluoro-N-(2-hydroxy-propoxy)-benzamide]		80.5	89.2
	CC(O)CONC(=O)c1ccc(F)c(F)c1Nc1ccc(Cl)cc1F (stereo not drawn) [Example 168, 2-(4-Chloro-2-fluoro-phenylamino)-3,4-difluoro-N-(2-hydroxy-propoxy)-benzamide]	48.8	89.5	
